Data from BindingDB's records for doi:10.1016/j.ejmech.2007.04.019 (The Hebrew University of Jerusalem, 2008).

Experiments:
[1] = molecular target: T1, Prostaglandin G/H synthase 2 (Homo sapiens, UniProt P35354); assay: Inhibition of cyclooxygenase-2
T1 sequence (P35354 whole entry): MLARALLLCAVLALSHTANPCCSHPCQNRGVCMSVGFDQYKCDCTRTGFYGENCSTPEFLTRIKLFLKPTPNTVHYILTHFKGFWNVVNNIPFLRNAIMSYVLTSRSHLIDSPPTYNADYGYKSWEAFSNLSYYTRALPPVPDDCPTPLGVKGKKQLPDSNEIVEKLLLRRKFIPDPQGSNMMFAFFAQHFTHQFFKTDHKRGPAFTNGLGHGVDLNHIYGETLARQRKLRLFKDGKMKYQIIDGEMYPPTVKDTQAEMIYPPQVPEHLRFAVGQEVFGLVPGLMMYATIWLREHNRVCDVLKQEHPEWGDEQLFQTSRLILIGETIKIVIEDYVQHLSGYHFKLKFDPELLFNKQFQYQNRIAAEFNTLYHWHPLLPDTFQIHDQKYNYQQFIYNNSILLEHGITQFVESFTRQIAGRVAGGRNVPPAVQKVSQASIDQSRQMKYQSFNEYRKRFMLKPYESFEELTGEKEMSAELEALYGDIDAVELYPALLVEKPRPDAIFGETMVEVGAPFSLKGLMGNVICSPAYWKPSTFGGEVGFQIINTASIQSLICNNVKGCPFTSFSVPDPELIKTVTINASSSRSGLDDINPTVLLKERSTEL

[2] = molecular target: Prostaglandin G/H synthase 1 (Homo sapiens, UniProt P23219); assay: Inhibition of cyclooxygenase-1
Sequence of Prostaglandin G/H synthase 1 (P23219 whole entry): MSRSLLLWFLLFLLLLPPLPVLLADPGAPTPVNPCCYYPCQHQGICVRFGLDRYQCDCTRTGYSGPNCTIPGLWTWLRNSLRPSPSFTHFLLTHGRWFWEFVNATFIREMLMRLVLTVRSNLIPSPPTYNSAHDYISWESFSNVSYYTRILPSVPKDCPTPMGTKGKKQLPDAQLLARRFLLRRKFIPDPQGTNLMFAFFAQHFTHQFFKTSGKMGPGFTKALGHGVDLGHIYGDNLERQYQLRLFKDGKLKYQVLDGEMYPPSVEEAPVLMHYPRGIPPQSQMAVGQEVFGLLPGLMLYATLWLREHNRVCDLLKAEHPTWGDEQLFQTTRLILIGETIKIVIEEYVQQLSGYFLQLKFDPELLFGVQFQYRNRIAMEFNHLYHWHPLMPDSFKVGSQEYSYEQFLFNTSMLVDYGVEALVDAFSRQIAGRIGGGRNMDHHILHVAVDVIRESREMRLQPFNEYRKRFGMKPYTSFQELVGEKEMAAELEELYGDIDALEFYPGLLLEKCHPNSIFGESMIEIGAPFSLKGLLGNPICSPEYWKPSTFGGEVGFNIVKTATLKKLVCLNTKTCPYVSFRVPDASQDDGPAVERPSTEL

C=C[C@@H]1[C@@H](O)C[C@@H]2[C@]3(CC[C@]4(C)[C@@H]([C@H](C)CCC(OO)C(=C)C)CC[C@@]24C)C[C@]13CCC(=O)OC (some centres not stated)
IC50 [1]: 4.7 µM | IC50 [2]: 43.7 µM
